Test results from ChEMBL document CHEMBL5465560, “Selectivity Literature for EUbOPEN Chemogenomic Library” (2024).
Each block holds one molecule with its values, some of them ahead of it.

What was measured:
[1] = target: Serine/threonine-protein kinase 25 (Homo sapiens) (UniProt O00506); conditions: at 10 µM
[2] = target: Mitogen-activated protein kinase 14 (Homo sapiens, UniProt Q16539); test: Selectivity interaction (Enzyme panel (AstraZeneca, AlphaScreen, functional assay)) EUB0000621a MAPK14
[3] = target: T1, Mitogen-activated protein kinase kinase kinase 5 (Homo sapiens) (UniProt Q99683); conditions: at 10 µM
T1 sequence (whole entry): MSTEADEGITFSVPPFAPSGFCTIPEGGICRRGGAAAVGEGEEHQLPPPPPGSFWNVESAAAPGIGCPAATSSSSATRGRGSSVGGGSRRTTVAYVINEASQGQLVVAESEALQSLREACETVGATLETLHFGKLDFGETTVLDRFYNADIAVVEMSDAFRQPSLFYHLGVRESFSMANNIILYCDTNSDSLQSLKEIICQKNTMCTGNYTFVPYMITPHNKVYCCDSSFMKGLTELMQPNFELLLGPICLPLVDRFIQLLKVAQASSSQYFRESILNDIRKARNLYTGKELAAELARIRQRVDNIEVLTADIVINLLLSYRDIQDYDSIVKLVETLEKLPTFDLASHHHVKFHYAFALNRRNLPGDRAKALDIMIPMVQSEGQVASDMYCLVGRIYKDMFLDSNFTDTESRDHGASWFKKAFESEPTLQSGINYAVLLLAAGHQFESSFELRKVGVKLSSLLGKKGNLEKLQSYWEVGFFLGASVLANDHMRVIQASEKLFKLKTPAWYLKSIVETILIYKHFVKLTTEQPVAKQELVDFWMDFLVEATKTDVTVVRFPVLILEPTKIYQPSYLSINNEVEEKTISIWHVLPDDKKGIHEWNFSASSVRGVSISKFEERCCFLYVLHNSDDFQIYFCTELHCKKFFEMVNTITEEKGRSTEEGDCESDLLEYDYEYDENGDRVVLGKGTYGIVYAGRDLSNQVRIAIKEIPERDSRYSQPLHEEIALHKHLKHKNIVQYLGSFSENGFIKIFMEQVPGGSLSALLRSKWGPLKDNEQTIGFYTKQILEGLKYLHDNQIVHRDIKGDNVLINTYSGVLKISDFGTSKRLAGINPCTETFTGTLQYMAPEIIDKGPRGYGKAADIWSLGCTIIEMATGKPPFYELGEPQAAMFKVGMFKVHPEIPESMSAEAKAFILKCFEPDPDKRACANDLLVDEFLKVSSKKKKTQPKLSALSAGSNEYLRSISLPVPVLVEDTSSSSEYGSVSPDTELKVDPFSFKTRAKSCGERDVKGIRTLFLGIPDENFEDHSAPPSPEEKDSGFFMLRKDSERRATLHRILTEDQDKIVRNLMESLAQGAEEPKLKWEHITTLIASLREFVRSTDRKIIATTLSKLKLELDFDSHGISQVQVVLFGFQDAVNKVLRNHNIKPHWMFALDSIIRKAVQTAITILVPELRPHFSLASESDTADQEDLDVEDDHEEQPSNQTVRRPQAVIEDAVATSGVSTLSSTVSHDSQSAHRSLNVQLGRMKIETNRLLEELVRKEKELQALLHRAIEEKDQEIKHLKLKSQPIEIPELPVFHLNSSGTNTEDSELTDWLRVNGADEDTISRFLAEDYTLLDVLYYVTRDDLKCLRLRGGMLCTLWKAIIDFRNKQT

[4] = target: Mitogen-activated protein kinase kinase kinase 20 (Homo sapiens) (UniProt Q9NYL2); conditions: at 10 µM
[5] = target: Serine/threonine-protein kinase 38 (Homo sapiens) (UniProt Q15208); test: Selectivity interaction (ActivX KiNativ screen (ex vivo kinase selectivity in human PBMCs)) EUB0001619a STK38; format: cell-based; conditions: PBMC, at 1 µM
[6] = target: T2, Inhibitor of nuclear factor kappa-B kinase subunit epsilon (Homo sapiens) (UniProt Q14164); test: Selectivity interaction (ActivX KiNativ screen (ex vivo kinase selectivity in human PBMCs)) EUB0001619a IKBKE; format: cell-based; conditions: PBMC, at 1 µM
T2 sequence (whole entry): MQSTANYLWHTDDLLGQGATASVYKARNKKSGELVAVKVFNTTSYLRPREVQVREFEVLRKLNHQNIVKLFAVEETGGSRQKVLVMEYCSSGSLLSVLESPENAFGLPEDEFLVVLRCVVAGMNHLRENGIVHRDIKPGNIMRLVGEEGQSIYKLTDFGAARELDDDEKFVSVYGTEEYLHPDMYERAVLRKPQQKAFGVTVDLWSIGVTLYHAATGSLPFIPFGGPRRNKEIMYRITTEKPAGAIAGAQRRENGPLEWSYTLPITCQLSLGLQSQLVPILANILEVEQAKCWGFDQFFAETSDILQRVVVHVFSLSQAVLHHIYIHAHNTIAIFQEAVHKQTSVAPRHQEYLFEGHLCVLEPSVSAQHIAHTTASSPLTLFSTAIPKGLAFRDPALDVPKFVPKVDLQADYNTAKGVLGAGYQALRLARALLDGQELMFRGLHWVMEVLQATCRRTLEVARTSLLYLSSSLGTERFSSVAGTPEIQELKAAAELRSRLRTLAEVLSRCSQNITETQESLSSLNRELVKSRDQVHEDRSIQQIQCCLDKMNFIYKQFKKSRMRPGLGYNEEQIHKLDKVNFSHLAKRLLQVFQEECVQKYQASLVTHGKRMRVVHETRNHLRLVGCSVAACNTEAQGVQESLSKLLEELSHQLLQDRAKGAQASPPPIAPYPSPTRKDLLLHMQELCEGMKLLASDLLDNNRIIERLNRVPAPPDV

[7] = target: Mitogen-activated protein kinase kinase kinase 4 (Homo sapiens) (UniProt Q9Y6R4); test: Selectivity interaction (KinomeScan (DiscoverX)) EUB0000618a MAP3K4; conditions: at 10 µM
Sequence of Mitogen-activated protein kinase kinase kinase 4 (Homo sapiens) (Q9Y6R4 whole entry): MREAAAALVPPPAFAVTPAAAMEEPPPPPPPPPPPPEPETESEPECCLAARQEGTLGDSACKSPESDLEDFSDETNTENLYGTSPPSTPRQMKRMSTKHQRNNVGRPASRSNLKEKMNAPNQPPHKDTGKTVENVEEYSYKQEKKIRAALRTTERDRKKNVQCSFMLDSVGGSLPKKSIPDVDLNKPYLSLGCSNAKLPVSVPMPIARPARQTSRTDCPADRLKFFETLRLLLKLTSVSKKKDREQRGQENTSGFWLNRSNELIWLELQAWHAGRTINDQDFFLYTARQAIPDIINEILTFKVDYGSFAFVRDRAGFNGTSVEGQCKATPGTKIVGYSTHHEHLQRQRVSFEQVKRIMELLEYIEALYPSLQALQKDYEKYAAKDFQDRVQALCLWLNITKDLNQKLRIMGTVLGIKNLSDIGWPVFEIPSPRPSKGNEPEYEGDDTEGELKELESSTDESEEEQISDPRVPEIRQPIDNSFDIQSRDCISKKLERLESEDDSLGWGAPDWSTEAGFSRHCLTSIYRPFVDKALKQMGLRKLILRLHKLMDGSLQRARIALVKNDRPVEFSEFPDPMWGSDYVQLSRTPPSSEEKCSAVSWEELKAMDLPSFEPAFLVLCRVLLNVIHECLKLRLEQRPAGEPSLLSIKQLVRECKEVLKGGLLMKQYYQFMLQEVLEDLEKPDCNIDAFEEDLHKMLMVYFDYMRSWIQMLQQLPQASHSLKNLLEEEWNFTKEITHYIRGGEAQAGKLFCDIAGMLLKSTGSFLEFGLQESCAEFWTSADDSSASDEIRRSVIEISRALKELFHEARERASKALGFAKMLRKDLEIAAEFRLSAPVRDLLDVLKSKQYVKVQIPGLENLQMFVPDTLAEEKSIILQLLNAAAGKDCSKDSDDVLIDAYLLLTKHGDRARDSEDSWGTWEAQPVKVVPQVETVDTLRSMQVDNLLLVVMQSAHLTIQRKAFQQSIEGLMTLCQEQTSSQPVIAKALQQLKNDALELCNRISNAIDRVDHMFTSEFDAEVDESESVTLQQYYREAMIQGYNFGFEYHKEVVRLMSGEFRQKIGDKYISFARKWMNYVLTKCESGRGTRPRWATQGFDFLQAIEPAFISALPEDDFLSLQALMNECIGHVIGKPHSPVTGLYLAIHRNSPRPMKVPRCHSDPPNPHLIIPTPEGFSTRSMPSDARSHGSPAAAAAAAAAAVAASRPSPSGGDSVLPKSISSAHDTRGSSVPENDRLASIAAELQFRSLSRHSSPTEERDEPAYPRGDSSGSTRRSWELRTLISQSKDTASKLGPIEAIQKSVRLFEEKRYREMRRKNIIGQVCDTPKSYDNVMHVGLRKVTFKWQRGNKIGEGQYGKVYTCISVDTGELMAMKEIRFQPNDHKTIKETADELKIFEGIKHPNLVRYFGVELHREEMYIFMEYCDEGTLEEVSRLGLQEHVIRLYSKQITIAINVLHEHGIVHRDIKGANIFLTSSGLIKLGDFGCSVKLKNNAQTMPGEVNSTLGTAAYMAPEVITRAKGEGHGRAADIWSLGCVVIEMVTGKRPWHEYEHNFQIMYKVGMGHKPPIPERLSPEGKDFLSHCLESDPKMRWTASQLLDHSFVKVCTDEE

Sequence of Serine/threonine-protein kinase 38 (Homo sapiens) (Q15208 2-465 limits assumed): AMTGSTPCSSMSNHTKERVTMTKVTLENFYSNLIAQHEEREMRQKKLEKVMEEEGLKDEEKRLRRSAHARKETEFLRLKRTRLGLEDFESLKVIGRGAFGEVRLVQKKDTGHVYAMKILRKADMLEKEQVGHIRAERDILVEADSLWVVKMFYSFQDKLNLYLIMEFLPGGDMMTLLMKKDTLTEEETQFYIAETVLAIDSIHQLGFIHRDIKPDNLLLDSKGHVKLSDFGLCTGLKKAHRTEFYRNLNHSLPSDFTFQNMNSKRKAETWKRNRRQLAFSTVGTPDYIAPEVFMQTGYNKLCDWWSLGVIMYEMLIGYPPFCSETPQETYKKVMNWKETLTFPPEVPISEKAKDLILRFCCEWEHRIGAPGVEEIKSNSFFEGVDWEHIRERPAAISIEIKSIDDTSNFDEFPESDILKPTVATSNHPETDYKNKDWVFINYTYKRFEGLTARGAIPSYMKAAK
Sequence of Mitogen-activated protein kinase kinase kinase 20 (Homo sapiens) (Q9NYL2 2-800 limits assumed): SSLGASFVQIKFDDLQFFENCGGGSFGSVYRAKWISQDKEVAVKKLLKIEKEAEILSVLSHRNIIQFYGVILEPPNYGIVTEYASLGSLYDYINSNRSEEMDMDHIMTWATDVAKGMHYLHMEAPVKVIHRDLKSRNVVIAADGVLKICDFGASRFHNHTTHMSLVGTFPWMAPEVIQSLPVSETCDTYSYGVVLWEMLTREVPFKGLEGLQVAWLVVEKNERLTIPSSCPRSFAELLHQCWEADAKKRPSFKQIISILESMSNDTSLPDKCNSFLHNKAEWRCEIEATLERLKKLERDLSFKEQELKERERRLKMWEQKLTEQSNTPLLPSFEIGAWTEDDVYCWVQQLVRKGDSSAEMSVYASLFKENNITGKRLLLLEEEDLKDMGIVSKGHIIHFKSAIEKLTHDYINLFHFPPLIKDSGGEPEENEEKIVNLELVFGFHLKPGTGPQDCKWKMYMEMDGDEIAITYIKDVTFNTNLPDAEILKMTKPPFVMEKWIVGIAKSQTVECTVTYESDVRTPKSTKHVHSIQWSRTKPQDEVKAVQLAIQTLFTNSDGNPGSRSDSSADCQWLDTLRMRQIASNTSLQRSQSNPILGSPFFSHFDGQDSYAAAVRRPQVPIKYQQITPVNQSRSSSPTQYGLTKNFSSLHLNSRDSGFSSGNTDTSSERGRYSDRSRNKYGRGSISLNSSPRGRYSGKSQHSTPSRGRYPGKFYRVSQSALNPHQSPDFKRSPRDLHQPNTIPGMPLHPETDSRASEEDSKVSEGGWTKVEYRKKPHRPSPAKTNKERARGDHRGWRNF
Sequence of Mitogen-activated protein kinase 14 (Q16539 whole entry): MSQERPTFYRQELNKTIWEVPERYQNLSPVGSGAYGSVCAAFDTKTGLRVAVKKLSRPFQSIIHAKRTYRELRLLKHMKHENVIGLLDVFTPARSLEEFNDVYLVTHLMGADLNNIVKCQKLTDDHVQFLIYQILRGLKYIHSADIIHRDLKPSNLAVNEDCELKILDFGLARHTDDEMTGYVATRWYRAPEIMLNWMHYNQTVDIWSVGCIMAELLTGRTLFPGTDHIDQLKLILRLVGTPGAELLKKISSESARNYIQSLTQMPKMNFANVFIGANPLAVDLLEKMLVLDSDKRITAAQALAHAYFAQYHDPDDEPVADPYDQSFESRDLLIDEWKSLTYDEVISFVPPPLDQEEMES
Sequence of Serine/threonine-protein kinase 25 (Homo sapiens) (O00506 whole entry, looked up): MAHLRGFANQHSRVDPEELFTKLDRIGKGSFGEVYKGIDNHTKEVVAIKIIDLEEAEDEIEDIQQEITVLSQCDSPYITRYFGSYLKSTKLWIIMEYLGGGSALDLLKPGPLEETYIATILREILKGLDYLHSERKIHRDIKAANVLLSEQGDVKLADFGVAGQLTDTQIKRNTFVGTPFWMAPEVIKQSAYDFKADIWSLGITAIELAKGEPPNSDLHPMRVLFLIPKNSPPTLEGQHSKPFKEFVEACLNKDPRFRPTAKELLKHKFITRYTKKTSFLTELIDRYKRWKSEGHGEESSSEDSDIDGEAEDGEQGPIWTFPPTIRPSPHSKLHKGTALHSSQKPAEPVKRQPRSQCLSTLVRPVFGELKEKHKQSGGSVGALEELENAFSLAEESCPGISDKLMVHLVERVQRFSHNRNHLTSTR

SMILES: Cc1cc([C@@H](C)Nc2ccccc2C(=O)O)c2nc(N3CCOCC3)cc(=O)n2c1 [AZD-6482]
- % of control [1]: 76%
- IC50 [2]: > 671 µM
- % of control [3]: 100%

- % of control [4]: 100%
SMILES: CCN(CC)CCCCNc1ncc2cc(-c3cc(OC)cc(OC)c3)c(NC(=O)NC(C)(C)C)nc2n1

SMILES: N#Cc1cccc(-c2c[nH]c3ncnc(N4CCOCC4)c23)c1
- % of inhibition [5]: 3%
- % of inhibition [6]: 7%

SMILES: O[C@H]1CC[C@H](Nc2ncc3nc(Nc4c(F)cc(F)cc4F)n([C@H]4CCOC4)c3n2)CC1
- % of control [7]: 100%
